Test results: publication PMC11672562, “Synthesis and Antibacterial Activity of New 6″-Modified Tobramycin Derivatives” (Antibiotics, 2024)

test system: E. coli JW5503 transformed with pJC27 plasmids; assay: Translation accuracy reporter (mutant β-galactosidase, X-Gal staining); assay type: cell-based; settings: 4a,b, 6a,b and tobramycin 50 mg/mL; streptomycin, kanamycin 5 mg/mL; rifampicin 1 mg/mL
Text: It is known that tobramycin inhibits protein biosynthesis by the blocking of initiation and inducing translation errors. We have tested whether the new tobramycin derivatives 4a,b and 6a,b retain the ability to induce translation errors. This assay uses an E. coli strain with a plasmid construct that encodes beta-galactosidase in such a way that a functional protein is only synthesized in the presence of translation errors. If the mechanism of action of the antibiotic is related to the translation errors, we observe indigo blue staining along the edge of the inhibition zone because functional b-galactosidase degrades the substrate X-Gal. As a result, if the antibiotic causes translation errors, blue staining forms around the edge of the inhibition zone. […] According to this, an introduction at the 6″-position of the aminoalkylamino or guanidinoalkylamino residues of tobramycin retains an original mechanism of aminoglycoside’s antibacterial activity affecting the protein synthesis.
To qualitatively evaluate translation accuracy in the presence of antibiotics, E. coli JW5503 [34] (kanamycin resistance cassette removed as per) transformed with pJC27 plasmids was utilized. The plasmids encode the β-galactosidase gene containing a mutation in its active center (E537: GAA→GAC/GGG), alongside a control plasmid without the mutation. Active β-galactosidase synthesis could only occur if translation errors were introduced. Petri dishes (9 cm) containing 20 mL of solid LB agar (1.5%) supplemented with chloramphenicol (11.3 μg/mL) and X-Gal (80 μg/mL) were prepared. A secondary layer comprising 3.5 mL of LB agar (0.6%), supplemented with 11.3 μg/mL chloramphenicol and 0.5 mL of liquid culture (A600~1.0), was added and allowed to solidify. Antibiotics were applied to the plates in 1 μL aliquots at the following concentrations: 50 mg/mL for 4a, 4b, 6a, 6b, and tobramycin; 5 mg/mL for streptomycin and kanamycin; and 1 mg/mL for rifampicin. Plates were incubated at 37 °C for 18 h. […] Results were documented using a Samsung Galaxy Tab A71 camera.

Structure (SMILES) | induction of translation errors (blue staining at edge of inhibition zone)
NCCCNC[C@H]1O[C@H](O[C@@H]2[C@@H](O)[C@H](O[C@H]3O[C@H](CN)[C@@H](O)C[C@H]3N)[C@@H](N)C[C@H]2N)[C@H](O)[C@@H](N)[C@@H]1O [Compound 4b, 6″-(3-Aminopropyl-1-amino)-6″-deoxytobramycin acetate] | caused a blue coloring of the bacterial lawn
NCCNC[C@H]1O[C@H](O[C@@H]2[C@@H](O)[C@H](O[C@H]3O[C@H](CN)[C@@H](O)C[C@H]3N)[C@@H](N)C[C@H]2N)[C@H](O)[C@@H](N)[C@@H]1O [Compound 4a, 6″-(2-Aminoethyamino)-6″-deoxytobramycin acetate] | caused a blue coloring of the bacterial lawn
N=C(N)NCCNC[C@H]1O[C@H](O[C@@H]2[C@@H](O)[C@H](O[C@H]3O[C@H](CN)[C@@H](O)C[C@H]3N)[C@@H](N)C[C@H]2N)[C@H](O)[C@@H](N)[C@@H]1O [Compound 6a, 6″-(2-Guanidinoethylamino)-6″-deoxytobramycin acetate] | caused a blue coloring of the bacterial lawn
NC[C@H]1O[C@H](O[C@H]2[C@H](O)[C@@H](O[C@H]3O[C@H](CO)[C@@H](O)[C@H](N)[C@H]3O)[C@H](N)C[C@@H]2N)[C@H](N)C[C@@H]1O [Tobramycin, tobramycin] | increase the misreading
N=C(N)NCCCNC[C@H]1O[C@H](O[C@@H]2[C@@H](O)[C@H](O[C@H]3O[C@H](CN)[C@@H](O)C[C@H]3N)[C@@H](N)C[C@H]2N)[C@H](O)[C@@H](N)[C@@H]1O [Compound 6b, 6″-(3-Guanidinopropyl-1-amino)-6″-deoxytobramycin acetate] | caused a blue coloring of the bacterial lawn
